In patent US20240270692A1, “S(+) FORM OF 4-(2,4-DIFLUOROPHENYL)-2-(1H-INDOL-3-YL)-4-OXO-BUTANOIC ACID” (TOHOKU UNIVERSITY, priority 2021, published 2024):

Assays:
[1] = Metabolism test using human liver microsomes (LC/HRMS); format: in vitro ADME; conditions: incubated 37° C. for 1 hour
Protocol: The S(+) form or the R(−) form of MA5 was dissolved in acetonitrile (for LC-MS, manufactured by Kanto Chemical Co., Inc.) and each adjusted to 10 mM. 855 mg of sucrose (manufactured by FUJIFILM Wako Pure Chemical Corporation) was dissolved in 10 mL of water to prepare a 250 mM sucrose solution, and then by using this solution, a liquid containing 20 mg/mL human liver microsomes (8-donor-pool, manufactured by Sekisui XenoTech, LLC) was diluted 4-fold to prepare a 5 mg/mL human liver microsome suspension. In a 1 mL tube, 5 μL of three test solutions (sucrose solution containing 10 mM S(+) form of MA5, sucrose solution containing 10 mM R(−) form of MA5, or control Vehicle [sucrose solution]), 5 μL of NADPH Regenerating System Solution B (manufactured by Corning Incorporated), 100 μL of UGT Reaction Mix Solution B (manufactured by Corning Incorporated), and 275 μL of water were added to 50 μL of the human liver microsome suspension, and the resulting mixture was shaken for 30 seconds and preincubated at 37° C. for 5 minutes. After that, 25 μL of NADPH Regenerating System Solution A (manufactured by Corning Incorporated) and 40 μL of UGT Reaction Mix Solution A (manufactured by Corning Incorporated) were added, and the resulting mixture was shaken for 30 seconds and incubated at 37° C. for 1 hour. The reaction was stopped by adding 500 μL of an ice-cold acetonitrile solution containing 0.1% formic acid, and the resulting mixture was shaken for 30 seconds, sonicated for 10 minutes, and then centrifuged at 20,000×g at 4° C. for 10 minutes. 50 μL of the supernatant was collected in a fresh 1 mL tube, centrifugally concentrated at 2,000 rpm at room temperature (25 to 35° C.) for 30 minutes, and frozen at −80° C. […]
Q-Exactive (manufactured by Thermo Fisher Scientific Inc.) was used as an HRMS apparatus. […] Additional MS^2 data were measured in target MS^2 mode for both positive and negative ions. […]

[2] = biological target: T1, nicotinamide phosphoribosyltransferase (Nampt) (Homo sapiens, UniProt P43490); test: Nampt binding test (Octet K2); conditions: for binding to Nampt: Octet K2, biotin Nampt
T1 construct: biotin (biotinylated protein)
T1 sequence (P43490 whole entry, species assumed): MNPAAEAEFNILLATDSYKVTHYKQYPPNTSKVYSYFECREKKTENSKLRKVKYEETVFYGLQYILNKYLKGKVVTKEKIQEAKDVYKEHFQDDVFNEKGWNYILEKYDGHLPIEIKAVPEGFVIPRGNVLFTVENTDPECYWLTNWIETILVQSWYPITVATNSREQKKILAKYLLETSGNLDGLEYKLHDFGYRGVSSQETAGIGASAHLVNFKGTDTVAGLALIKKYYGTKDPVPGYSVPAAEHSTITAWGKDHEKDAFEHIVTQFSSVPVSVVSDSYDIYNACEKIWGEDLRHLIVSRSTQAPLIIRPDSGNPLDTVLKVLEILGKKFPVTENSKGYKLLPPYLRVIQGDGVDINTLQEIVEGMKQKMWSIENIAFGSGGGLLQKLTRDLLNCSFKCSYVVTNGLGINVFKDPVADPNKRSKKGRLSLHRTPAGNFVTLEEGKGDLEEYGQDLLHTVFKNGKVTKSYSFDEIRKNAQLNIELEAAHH
Protocol: The binding of the S(+) form of MA5 and the R(−) form of MA5 to nicotinamide phosphoribosyltransferase (Nampt), which is a key enzyme of the mammalian NAD^+ synthesis system, was measured by using Octet K2.
A 0.01% DDM PBS solution was prepared as a measurement buffer. 1 μL of biotin Nampt was added to 1000 μL of the measurement buffer. This was diluted 2-fold to obtain a 0.4 ng/μL ligand solution. A DMSO solution of a 100 mM MA5 S(+) form was diluted from 300 µM to 1000 μM, a DMSO solution of a 100 mM MA5 R(−) form was diluted from 500 μM to 1200 μM, and the diluted solutions were each used as an analyte solution. 200 μL each of the measurement buffer, a 1 μM biotin solution, a ligand solution, a 100 μM biocytin solution, and the analyte solution were added to a 96-well plate, and the plate was set in Octet K2 to carry out the measurement. Data were analyzed by using the accompanying software. Kd values were represented graphically with Prism 9 by using the concentrations of the analyte solution and the numerical values of Req (nm) calculated by the analysis.

binding to Nampt [2]	binding to Nampt ([2]; listed as R(−) form)	Kd ([2]; NAMPT, Octet K2)	SMILES	glucuronide conjugates (+C6H8O6 [+1.7 min, +2.6 min]) [1]
did not bind to NAMPT	does not bind to Nampt		O=C(C[C@@H](C(=O)O)c1c[nH]c2ccccc12)c1ccc(F)cc1F [R(−) form of MA5, 4-(2,4-difluorophenyl)-2-(1H-indol-3-yl)-4-oxo-butanoic acid]	detected
binds to Nampt		58.9 µM	O=C(C[C@H](C(=O)O)c1c[nH]c2ccccc12)c1ccc(F)cc1F [S(+) form of MA5, 4-(2,4-difluorophenyl)-2-(1H-indol-3-yl)-4-oxo-butanoic acid]	detected only at a level that was little or no different from the control
